Results on five compounds are retold here after publication PMC4274664, “Arabidopsis cytosolic acyl-CoA-binding proteins ACBP4, ACBP5 and ACBP6 have overlapping but distinct roles in seed development” (Bioscience Reports, 2014).

Molecules are shown by their SMILES. Where two headings read alike, the source gives them in different places.

What is called Kd is the concentration at which binding is half-saturated.

Holding throughout (conditions): for n: mean of three experiments±S.D., stoichiometry of ligand-to-protein binding; for ΔG: in kcal/mol
In one test the target is T1, rAtACBP5 (Arabidopsis thaliana, UniProt Q8RWD9).
T1 sequence (Q8RWD9 1-648): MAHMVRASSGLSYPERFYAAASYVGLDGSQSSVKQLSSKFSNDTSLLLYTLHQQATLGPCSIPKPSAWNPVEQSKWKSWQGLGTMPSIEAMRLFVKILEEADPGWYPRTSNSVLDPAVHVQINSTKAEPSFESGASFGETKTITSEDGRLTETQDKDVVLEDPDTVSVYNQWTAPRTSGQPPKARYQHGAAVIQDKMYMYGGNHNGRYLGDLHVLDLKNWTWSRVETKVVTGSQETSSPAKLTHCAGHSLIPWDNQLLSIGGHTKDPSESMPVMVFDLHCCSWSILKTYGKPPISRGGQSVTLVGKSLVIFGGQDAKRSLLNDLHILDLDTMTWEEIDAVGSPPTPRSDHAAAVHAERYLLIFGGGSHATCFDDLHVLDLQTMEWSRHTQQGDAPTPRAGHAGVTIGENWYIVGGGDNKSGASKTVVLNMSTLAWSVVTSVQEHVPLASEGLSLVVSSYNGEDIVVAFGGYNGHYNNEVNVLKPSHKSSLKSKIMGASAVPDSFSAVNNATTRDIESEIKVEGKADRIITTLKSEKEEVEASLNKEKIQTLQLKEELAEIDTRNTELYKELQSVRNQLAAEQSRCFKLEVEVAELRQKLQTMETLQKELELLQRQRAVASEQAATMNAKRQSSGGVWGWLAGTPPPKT
As to the kind of experiment: ITC of acyl-CoA esters binding to rAtACBP5. From the text:
(§1) The protein expression plasmids containing full-length AtACBP4 and AtACBP5 cDNA were previously constructed in the vector pRSETB (Invitrogen) as pAT184 and pAT185, respectively. Recombinant (His)6-AtACBP4 and (His)6-AtACBP5 proteins (rAtACBP4 and rAtACBP5) were expressed in Escherichia coli, purified and refolded according to Leung et al.. The coding sequence of AtACBP6 was amplified by PCR with primer pairs ACBP-F1 and ACBP-R1 and cloned into expression vector pEXP5-NT/TOPO (Invitrogen) to generate plasmid pEXP-ACBP6. Sequences of primers are listed in Supplementary Table S1. Recombinant (His)6-AtACBP6 (rAtACBP6) was expressed in E. coli and purified following Chye. The three recombinant proteins were dialysed in 10 mM sodium phosphate buffer (pH 7.0). Protein concentrations were determined by the standard Bradford assay (Bio-Rad).
(§2) Calorimetric titration was performed with a MicroCal iTC200 system (GE Healthcare) at 30°C. Long-chain acyl-CoA esters (Avanti Polar Lipids, Inc.) were dissolved in 10 mM sodium phosphate buffer (pH 7.0) to a final concentration of 0.25, 0.5 and 1 mM. The solution was degassed and loaded into a syringe, while 15 μM rAtACBP6, 6 μM rAtACBP4 or 60 μM rAtACBP5, was placed into the sample cell. For all titrations, 1.8 μl ligand was injected into the sample cell at 150 s intervals with a stirring speed of 1000 rpm. The titrations were completed after 20 injections. All data were collected automatically, and non-specific heat effects were estimated and corrected after saturation following the instructions of the manufacturer. Raw data were integrated and analysed using the Origin v.7.0 software accompanying the calorimeter.

The next test has as its target T2, rAtACBP4 (Arabidopsis thaliana, UniProt Q9MA55).
T2 sequence (Q9MA55 1-668): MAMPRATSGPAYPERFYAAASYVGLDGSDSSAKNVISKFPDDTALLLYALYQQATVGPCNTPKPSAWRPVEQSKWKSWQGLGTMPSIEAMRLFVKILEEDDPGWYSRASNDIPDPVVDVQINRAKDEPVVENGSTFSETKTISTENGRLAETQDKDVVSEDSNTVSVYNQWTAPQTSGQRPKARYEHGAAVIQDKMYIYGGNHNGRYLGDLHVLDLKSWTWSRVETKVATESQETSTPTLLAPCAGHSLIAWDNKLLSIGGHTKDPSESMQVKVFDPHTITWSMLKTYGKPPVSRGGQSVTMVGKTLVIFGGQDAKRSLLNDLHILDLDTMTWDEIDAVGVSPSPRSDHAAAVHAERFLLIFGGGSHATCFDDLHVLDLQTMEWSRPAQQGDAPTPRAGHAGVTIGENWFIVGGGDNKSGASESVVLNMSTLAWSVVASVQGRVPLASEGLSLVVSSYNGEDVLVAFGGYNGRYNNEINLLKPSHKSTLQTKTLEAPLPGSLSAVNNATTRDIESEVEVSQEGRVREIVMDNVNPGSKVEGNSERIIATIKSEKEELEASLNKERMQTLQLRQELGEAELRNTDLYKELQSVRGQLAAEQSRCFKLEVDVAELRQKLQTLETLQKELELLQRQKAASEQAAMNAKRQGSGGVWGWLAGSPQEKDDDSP
As to the kind of experiment: ITC of acyl-CoA esters binding to rAtACBP4.
Text: as §1, §2

For a further test, the target named is T3, rAtACBP6 (Arabidopsis thaliana, UniProt P57752).
T3 construct: made in house; host or cells: Escherichia coli
T3 sequence (P57752 1-92): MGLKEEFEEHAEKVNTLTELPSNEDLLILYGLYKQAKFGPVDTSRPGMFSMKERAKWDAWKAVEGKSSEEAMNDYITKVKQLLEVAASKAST
Put plainly: ITC of acyl-CoA esters binding to rAtACBP6.
Text: as §1, §2

Where [1] appears, read: ITC, 30°C, 10 mM sodium phosphate buffer pH 7.0.
The mark [2] stands for this setting: ITC, 30°C, 10 mM sodium phosphate buffer pH 7.0, mean of three±S.D.
[3] abbreviates: ITC, 30°C, 10 mM sodium phosphate buffer pH 7.0, mean of three±S.D., read-out: Kd.

In the case of `CCCCCCCCCCCCCC(=O)SCCNC(=O)CCNC(=O)[C@H](O)C(C)(C)COP(=O)(O)OP(=O)(O)OC[C@H]1O[C@@H](n2cnc3c(N)ncnc32)[C@H](O)[C@@H]1OP(=O)(O)O` [14:0], the Kd at rAtACBP5 is 41.9 ± 2.2 µM; at rAtACBP4, 65.3 ± 22.6 µM; at rAtACBP6, 0.0387 ± 0.0045 µM. Further, the values for the ΔS at rAtACBP5 (setting [1]), at rAtACBP4 (setting [1]) and on rAtACBP6 (setting [1]) were 7.7 cal/(mol·K), -158 cal/(mol·K) and -4.6 cal/(mol·K), respectively. Further, the n was determined as 0.9 at rAtACBP5 (setting [1]), 1 on rAtACBP4 (setting [1]) and 1 at rAtACBP6 (setting [1]). The ΔH on rAtACBP5 (setting [2]) is -3.7 ± 1.2 kcal/mol; on rAtACBP4 (setting [2]), -53.5 ± 6.9 kcal/mol; at rAtACBP6 (setting [2]) it was -11.6 ± 1.4 kcal/mol. For the same compound, the ΔG is −6.1±0.0 on rAtACBP5 (setting [2]), −5.8±0.1 on rAtACBP4 (setting [2]) and −10.2±0.2 on rAtACBP6 (setting [2]).

In the case of `CCCCCCCCCCCCCCCCCC(=O)SCCNC(=O)CCNC(=O)[C@H](O)C(C)(C)COP(=O)(O)OP(=O)(O)OC[C@H]1O[C@@H](n2cnc3c(N)ncnc32)[C@H](O)[C@@H]1OP(=O)(O)O` [18:0], the ΔS at rAtACBP5 (setting [1]) was -37.2 cal/(mol·K); on rAtACBP4 (setting [1]) it was -0.6 cal/(mol·K); on rAtACBP6 (setting [1]), -6.6 cal/(mol·K). Further, the n at rAtACBP5 (setting [1]) stood at 1; on rAtACBP4 (setting [1]), 1.1 ± 0.1; on rAtACBP6 (setting [1]), 1. Besides, the ΔH was -17.4 ± 0.1 kcal/mol on rAtACBP5 (setting [2]), -8.9 ± 1 kcal/mol on rAtACBP4 (setting [2]) and -12 ± 2.5 kcal/mol on rAtACBP6 (setting [2]). The ΔG at rAtACBP5 (setting [2]) is reported as −6.2±0.0; at rAtACBP4 (setting [2]) it was −8.7±1.0; on rAtACBP6 (setting [2]), −10.0±0.3. For the same compound, the figures for the Kd on rAtACBP5 (setting [3]), at rAtACBP4 (setting [3]) and at rAtACBP6 (setting [3]) were 35.4 ± 1.4 µM, 2.7 ± 1.6 µM and 0.0606 ± 0.0024 µM, respectively.

Regarding `CCCCCCCC/C=C\CCCCCCCC(=O)SCCNC(=O)CCNC(=O)[C@H](O)C(C)(C)COP(=O)(O)OP(=O)(O)OC[C@H]1O[C@@H](n2cnc3c(N)ncnc32)[C@H](O)[C@@H]1OP(=O)(O)O` [18:1, oleoyl-CoA], the ΔS on rAtACBP5 (setting [1]) is -1.8 cal/(mol·K); on rAtACBP4 (setting [1]), -4.3 cal/(mol·K); on rAtACBP6 (setting [1]), 11.4 cal/(mol·K). In addition, the n came out at 0.9 on rAtACBP5 (setting [1]), 2.1 at rAtACBP4 (setting [1]) and 1.9 ± 0.1 on rAtACBP6 (setting [1]). The ΔH was -6.2 ± 0.2 kcal/mol at rAtACBP5 (setting [2]), -6.9 ± 0.1 kcal/mol on rAtACBP4 (setting [2]) and -6.7 ± 3.8 kcal/mol at rAtACBP6 (setting [2]). For the same compound, the ΔG is recorded as −5.7±0.0 on rAtACBP5 (setting [2]), −5.6±0.0 at rAtACBP4 (setting [2]) and −10.2±0.1 on rAtACBP6 (setting [2]). Also, the figures for the Kd on rAtACBP5 (setting [3]), at rAtACBP4 (setting [3]) and on rAtACBP6 (setting [3]) were 74.4 ± 3.5 µM, 95.2 µM and 0.0453 ± 0.0043 µM, respectively. At rAtACBP6 (ITC), the “n (stoichiometry of ligand-to-protein binding)” value was 1.9.

In the case of `CCCCC/C=C\C/C=C\CCCCCCCC(=O)SCCNC(=O)CCNC(=O)[C@H](O)C(C)(C)COP(=O)(O)OP(=O)(O)OC[C@H]1O[C@@H](n2cnc3c(N)ncnc32)[C@H](O)[C@@H]1OP(=O)(O)O` [18:2, linoleoyl-CoA], the ΔS at rAtACBP5 (setting [1]) is -14.7 cal/(mol·K); at rAtACBP4 (setting [1]), -224 cal/(mol·K); at rAtACBP6 (setting [1]) it was -6.7 cal/(mol·K). Further, the n at rAtACBP5 (setting [1]) amounted to 1; on rAtACBP4 (setting [1]), 1; at rAtACBP6 (setting [1]), 1.1. The ΔH is -10.2 ± 0.2 kcal/mol on rAtACBP5 (setting [2]), -73.7 ± 2.6 kcal/mol on rAtACBP4 (setting [2]) and -12.3 ± 1.4 kcal/mol on rAtACBP6 (setting [2]). For the same compound, the ΔG is recorded as −5.8±0.0 on rAtACBP5 (setting [2]), −5.8±0.2 on rAtACBP4 (setting [2]) and −10.2±0.2 on rAtACBP6 (setting [2]). The Kd on rAtACBP5 (setting [3]) came to 64.1 µM; on rAtACBP4 (setting [3]), 73.8 ± 0.3 µM; at rAtACBP6 (setting [3]) it was 0.0364 ± 0.0049 µM.

In the case of `CC/C=C\C/C=C\C/C=C\CCCCCCCC(=O)SCCNC(=O)CCNC(=O)[C@H](O)C(C)(C)COP(=O)(O)OP(=O)(O)OC[C@H]1O[C@@H](n2cnc3c(N)ncnc32)[C@H](O)[C@@H]1OP(=O)(O)O` [18:3, linolenoyl-CoA], the ΔS at rAtACBP5 (setting [1]) was -7.4 cal/(mol·K); at rAtACBP4 (setting [1]), -300 cal/(mol·K); at rAtACBP6 (setting [1]), -7.7 cal/(mol·K). In addition, the results for the n on rAtACBP5 (setting [1]), on rAtACBP4 (setting [1]) and on rAtACBP6 (setting [1]) were 1.2 ± 0.1, 1 and 1.1, respectively. The ΔH at rAtACBP5 (setting [2]) is -7.8 ± 1.3 kcal/mol; on rAtACBP4 (setting [2]), -96.2 ± 5.3 kcal/mol; at rAtACBP6 (setting [2]), -12.1 ± 1.3 kcal/mol. The figures for the ΔG on rAtACBP5 (setting [2]), on rAtACBP4 (setting [2]) and at rAtACBP6 (setting [2]) were −5.6±0.1, −5.1±0.0 and −9.7±0.1, respectively. The figures for the Kd on rAtACBP5 (setting [3]), on rAtACBP4 (setting [3]) and on rAtACBP6 (setting [3]) were 92.4 ± 10.7 µM, 189 ± 0.5 µM and 0.0841 ± 0.0029 µM, respectively.
